According to patent US20230087644A1, “Probe for Specifically Detecting Pathological Collagens, and Preparation Method Therefor and Use Thereof” (LANZHOU UNIVERSITY, priority 2020, published 2023):

What was measured:
[1] = test system: denatured collagen in sternum and tail tissue sections; experiment: Staining of denatured collagen in paraffin-embedded mouse sternum and frozen tail tissue sections; assay type: binding; conditions: general statement on the probes of the embodiments
Experimental: Take the peptide probe prepared in Embodiment 1-5 for staining experiment. Paraffin staining of sternum: Embed mouse sternum tissue sections by paraffin and bake at 75° C. for 2 h; After cooling, treat the tissue with xylene twice, each time for 10 min; Then treat the slice with ethanol of gradient concentration; Finally, use ultrapure water to wash the slices twice. After removing the paraffin, treat the sternum tissue with ultrapure water at 85° C. for 10 minutes to denature collagen. Add blocking solution to the tissue section, leave it for 30 min, then suck up the solution, stain with 100 μL and 15 μM of the above peptide probe solutions, and incubate at 4° C. for 4 h; After removing the staining solution, wash with 1×PBS for 3 times, and wash the unbound probe with the washing solution; Drop mount solution, add cover slide, observe and take photos with fluorescence microscope.
Staining of frozen tail tissue: Treat tail tissue with 1% sodium dodecyl sulfate for 24 hours to denature collagen, and prepare the frozen sections. Put the slices in cold methanol and fix them at −20° C. for 10 min. Wash the frozen sections twice with PBS, add blocking solution to the tissue section, leave it for 30 min, then suck up the solution, stain with 100 μL and 15 μM of the above peptide probe solutions, and incubate at 4° C. for 2 h; After removing the staining solution, wash with 1×PBS for 3 times, and wash the unbound probe with the washing solution; Drop mount solution, add cover slide, observe and take photos with fluorescence microscope.
Results: The staining results of paraffin-embedded sternum tissues of peptide probe GOP-4, GOP-6, GOP-8, GOP-10 and GOP-12 prepared in Embodiment 1-5 of the present invention are shown in FIG. 1a.

[2] = Fluorescence spectrogram of probe solutions after 85° C. water bath and 0° C. ice bath; assay type: physicochemical; conditions: 300 μM probe solution, excitation 497 nm, emission 500-700 nm
Experimental: Take the peptide probe GOP-10, GPP-10, GPO-10 and GOO-10, and prepare 300 μM probe solutions respectively; Keep above probe solutions in a water bath at 85° C. for 20 min, and measure the fluorescence spectrogram by a fluorescence spectrophotometer immediately. Place heated probe solution in the ice-water mixture at 0° C. for 12 h, and measure the fluorescence spectrogram by fluorescence spectrophotometer again; The excitation wavelength is 497 nm, and the scanning range of emission spectrum is 500-700 nm.

[3] = Colorimetric assay of peptide probe solutions (trimer vs single-stranded state); assay type: physicochemical; conditions: 300 μM probe solution; for conformational state (colour of solution) at 0° C.: 0° C. ice-water for 12 h after heating; for conformational state (colour of solution) after heating: 85° C. water bath 20 min
Experimental: Take the peptide probe GOP-10, GPP-10, GPO-10 and GOO-10, and prepare 300 μM probe solutions respectively; Keep above probe solutions in a water bath at 85° C. for 20 min, and collect picture data via a digital camera and observe the color of the solutions. Place heated probe solution in the ice-water mixture at 0° C. for 12 h, and then collect picture data via a digital camera again and observe the color of the solution.

[4] = Thermal stability test (fluorescence intensity at 525 nm, 0-95° C.); assay type: physicochemical; conditions: 15 μM probe in 10 mM phosphate buffer; for fluorescence intensity in the range of 0-95° C.: 525 nm, temperature gradient; for thermal transformation temperature: from derivative curves
Experimental: Take the peptide probe GOP-10, GPP-10, GPO-10 and GOO-10, and prepare 300 μM probe solutions respectively; Dilute each probe solution to 15 μM by 10 mM phosphate buffer, and store at 0° C. for later use. Take the probe solutions respectively, raise the temperature from 0° C. to 95° C. in a gradient, and detect the fluorescence intensity of the solutions at 525 nm during the temperature rise process to obtain the […]; Conduct the first derivative of the curve by corresponding the maximum value of the curve to the thermal change temperature of the probe.

[5] = test system: denatured collagen in mouse intestinal tissue; experiment: Staining of collagen in intestinal tissue of mice by peptide probe; assay type: binding; conditions: 15 μM probe; for fluorescence staining ability, probe incubated at 0° C. before staining: FIG. 5a-d; for fluorescence staining ability, probe pretreated at 85° C. before staining: FIG. 5e-h
Experimental: Take the peptide probe GOP-10, GPP-10, GPO-10 and GOO-10, and prepare 300 μM probe solutions respectively; Take the intestinal tissue samples of mice paraffin embedding and slice to 4 μm; After washing and deparaffinating the slices, treat the intestinal tissue with ultrapure water at 85° C. for 10 minutes to denature collagen.

[6] = test system: pathological collagen in human osteoarthritis tissue; experiment: Staining of pathological section of human arthritis; assay type: binding; conditions: 15 μM probe, 4° C. 4 h
Experimental: Take human osteoarthritis tissue for paraffin embedding, slice to 4 μm, carry out washing and deparaffinating, and then add with 0.5 mL blocking solution, and suck off the liquid after placing for 30 min. Stain with 100 μL, 15 μM peptide probe solution, and incubate at 4° C. for 4 h. After removing the staining solution, stain with 100 μL DAPI diluent for 1 min. Use 1×PBS to wash for 3 times, and wash the unbound probes and excess DAPI. Drop mount solution, add cover slide, observe and take photos with fluorescence microscope.
The staining results of pathological sections of fibrocartilage of human osteoarthritis are shown in FIG. 7, and the staining results of pathological sections of hyaline cartilage of human osteoarthritis are shown in FIG. 8. […] Therefore, the peptide probe GOP-10 prepared by the invention can be used for detecting pathological collagen in human osteoarthritis fibrocartilage and osteoarthritis hyaline cartilage.

[7] = test system: pathological collagen in mouse ear tissue; experiment: Staining of collagen in ear tissue of normal mice and diseased mice by peptide probe; assay type: binding; conditions: 15 μM probe
Experimental: Take the peptide probe GOP-10 and prepare 300 μM probe solutions;
Take mouse ear tissue samples for paraffin embedding and slice to 4 μm; After washing and deparaffinating the slice, treat part of the ear bone tissues with ultrapure water at 85° C. for 10 minutes to denature collagen, thus obtaining injured ear tissues; Untreated ear tissue is normal ear tissue. Add blocking solution to the tissue section, leave it for 30 min, then suck up the solution, stain with 100 μL and 15 μM of the above peptide probe solutions, and incubate at 4° C. for 4 h; After removing the staining solution, stain with 100 μL DAPI diluent for lmin and wash with 1×PBS for 3 times, and wash the unbound probe and excessive DAPI diluent with the washing solution; Drop mount solution, add cover slide, observe and take photos with fluorescence microscope;
The test results are shown in FIG. 6, in which the fluorescence detection results of injured mouse ear tissues are shown in FIG. 6a and normal mouse ear tissues are shown in FIG. 6b.

Substance | binding to pathological collagen [1] | change of fluorescence intensity between 85° C. water bath and 0° C. ice bath [2] | conformational state (colour of solution) at 0° C. [3] | conformational state (colour of solution) after heating [3] | fluorescence intensity in the range of 0-95° C. [4] | thermal transformation temperature [4] [°C] | fluorescence staining ability, probe incubated at 0° C. before staining [5] | fluorescence staining ability, probe pretreated at 85° C. before staining [5] | staining of pathological section of fibrocartilage of human osteoarthritis ([6]; FIG. 7) | staining of pathological section of hyaline cartilage of human osteoarthritis ([6]; FIG. 8) | fluorescence staining of injured mouse ear tissue ([7]; collagen denatured at 85° C. for 10 min, FIG. 6a) | fluorescence staining of normal mouse ear tissue ([7]; untreated ear tissue, FIG. 6b)
FAM-Ahx-(GOP)8-NH2 [GOP-8] | can specifically bind to pathological collagen | – | – | – | – | – | – | – | – | – | – | –
FAM-Ahx-(GPP)10-NH2 [GPP-10] | – | changed significantly | trimer state (orange) | single-stranded conformation (green) | increased significantly | 39 | no fluorescence staining ability | can be fluorescently stained | – | – | – | –
FAM-Ahx-(GOP)12-NH2 [GOP-12] | can specifically bind to pathological collagen | – | – | – | – | – | – | – | – | – | – | –
FAM-Ahx-(GOP)10-NH2 [GOP-10] | can specifically bind to pathological collagen | does not change | stable single-stranded conformation (green) | single-stranded state (green) | does not change | – | good fluorescence staining ability | good fluorescence staining ability | can specifically bind to pathological collagen | can specifically bind to pathological collagen | stained green | no green fluorescence
FAM-Ahx-(GOO)10-NH2 [GOO-10] | – | changed significantly | trimer state (orange) | single-stranded conformation (green) | increased significantly | 69 | no fluorescence staining ability | can be fluorescently stained | – | – | – | –
FAM-Ahx-(GPO)10-NH2 [GPO-10] | – | changed significantly | trimer state (orange) | single-stranded conformation (green) | increased significantly | 63 | no fluorescence staining ability | can be fluorescently stained | – | – | – | –
